The subject of data set [1] is NCI-H358 non-small cell lung cancer cells. Nature of the data set: Inhibition of NCI-H358 cell proliferation (CellTiter-Glo 3D, 7 days). Type of data set: cell-based. The following applies: Homo sapiens, NCI-H358, 168 h, 3D microspheres, read-out: Inhibitory activity against NCI-H358 cell proliferation (IC50). The method, boiled down:
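NCI-H358 cells at 2000/well in ultra-low attachment plates grown overnight into spheroids, then exposed to 8-point 5-fold compound dilutions in RPMI-1640/10% FBS for 7 days at 37 °C. Viability by CellTiter-Glo 3D luminescence; inhibition relative to no-inhibitor and cell-free controls.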

Data set [2] in a line: Rat liver microsomal metabolic stability. Type of data set: in vitro ADME. The following applies: rat liver microsomes. The procedure, abridged:
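Rat liver microsomes (1 mg/mL working solution) with test compound (working solution 100 µM) were pre-incubated 5 min at 37 °C, then started with NADPH (4.0 mM working solution). Residual compound measured by LC-MS/MS over time. T1/2 taken from first-order decay, scaled to CLint and hepatic CL with fu = 1.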
For orientation: Microsomes from liver hold many membrane-bound enzymes, among them those of drug oxidation.

The mark [3] stands for this setting: calculated from T1/2, fu defaulted to 1, read-out: CL(liver).

As to `CNc1nnc(N[C@H](C)c2cccc(C(F)F)c2F)c2cn(C3(C)CC3)c(=O)cc12.O=CO` [Example 9, (R)-4-((1-(3-(difluoromethyl)-2-fluorophenyl)ethyl)amino)-1-(methylamino)-6-(1-methylcyclopropyl) pyrido[3,4-d]pyridazin-7(6H)-one formate], in data set [1], the IC50 was determined as 42.6 nM. Moreover, the half-life (as a rule, the time needed for the level to fall by half in the phase considered) at 1 µM in data set [2] (NADPH, 37°C) came out at 260 min. Also, in data set [2] (setting [3]), the CLint scaled at 1 µM is 8.2 mL/min/kg.

With `CC(C)Nc1nnc(N[C@H](C)c2cccc(C(F)F)c2F)c2cn(C3(C)CC3)c(=O)cc12.O=CO` [Example 12, (R)-4-((1-(3-(difluoromethyl)-2-fluorophenyl)ethyl)amino)-1-(isopropylamino)-6-(1-methylcyclopropyl) pyrido[3,4-d]pyridazin-7(6H)-one formate], the IC50 in data set [1] is 36.3 nM. For the same compound, in data set [2] (NADPH, 37°C), the half-life at 1 µM was found to be 150 min. Moreover, in data set [2] (setting [3]), the CLint scaled at 1 µM is 12.8 mL/min/kg.

`CNc1nnc(N[C@H](C)c2cccc(C(F)(F)F)c2C)c2cn(C3CC3)c(=O)cc12` [Example 52, (R)-6-cyclopropyl-4-((1-(2-methyl-3-(trifluoromethyl)phenyl)ethyl)amino)-1-(methylamino)pyrid o[3,4-d]pyridazin-7(6H)-one]: the IC50 in data set [1] was found to be 61.5 nM. The same compound returned a half-life at 1 µM in data set [2] (NADPH, 37°C) of 84.6 min. For the same compound, the CLint scaled at 1 µM in data set [2] (setting [3]) is 19.2 mL/min/kg.

Regarding `CNc1nnc(N[C@H](C)c2cccc(C(F)(F)F)c2C)c2cn(C3(C)CC3)c(=O)cc12` [Example 73, (R)-4-((1-(2-methyl-3-(trifluoromethyl)phenyl)ethyl)amino)-1-(methylamino)-6-(1-methylcyclopropyl) pyrido[3,4-d]pyridazin-7(6H)-one], the IC50 in data set [1] turned out to be 14.7 nM. Besides, the half-life at 1 µM in data set [2] (NADPH, 37°C) is 95.4 min. In data set [2] (setting [3]), the CLint scaled at 1 µM is 17.7 mL/min/kg.

Turning to `C[C@@H](Nc1nnc(N2CCN(C)CC2)c2cc(=O)n(C3CC3)cc12)c1cccc(C(F)F)c1F` [Example 77], in data set [1], the IC50 was determined as 39.6 nM. The half-life in data set [2] (NADPH, 37°C) is more than 300 min. The CLint scaled in data set [2] (setting [3]) is less than 7.23 mL/min/kg.

Take `C[C@@H](Nc1nnc(N2CCN(C)CC2)c2cc(=O)n(C3(C)CC3)cc12)c1cccc(C(F)F)c1F.O=CO` [Example 80, (R)-4-((1-(3-(difluoromethyl)-2-fluorophenyl)ethyl)amino)-6-(1-methylcyclopropyl)-1-(4-methylpiperazin-1-yl)pyrido[3,4-d]pyridazin-7(6H)-one formate]: in data set [1], the IC50 came to 20.8 nM. In data set [2] (NADPH, 37°C), the half-life at 1 µM was found to be 161 min. In data set [2] (setting [3]), the CLint scaled at 1 µM was 12.1 mL/min/kg.

As for `C[C@@H](Nc1nnc(N2CCN(C)CC2)c2cc(=O)n(C3CCC3)cc12)c1cccc(C(F)F)c1F` [Example 88, (R)-6-cyclobutyl-4-((1-(3-(difluoromethyl)-2-fluorophenyl)ethyl)amino)-1-(4-methylpiperazin-1-yl)pyrido[3,4-d]pyridazin-7(6H)-one], the IC50 in data set [1] turned out to be 23.1 nM. Moreover, the half-life at 1 µM in data set [2] (NADPH, 37°C) came to 128 min. Also, the CLint scaled at 1 µM in data set [2] (setting [3]) was 14.4 mL/min/kg.

For `CCN1CCN(c2nnc(N[C@H](C)c3cccc(C(F)F)c3F)c3cn(C4CC(F)(F)C4)c(=O)cc23)CC1` [Example 98, (R)-6-(3,3-difluorocyclobutyl)-4-((1-(3-(difluoromethyl)-2-fluorophenyl)ethyl)amino)-1-(4-ethylpiperazin-1-yl)pyrido[3,4-d]pyridazin-7(6H)-one], the IC50 in data set [1] was 37.6 nM. For the same compound, the half-life at 1 µM in data set [2] (NADPH, 37°C) came to 187 min. Moreover, in data set [2] (setting [3]), the CLint scaled at 1 µM was 10.8 mL/min/kg.

Consider `CCN1CCN(c2nnc(N[C@H](C)c3cccc(C(F)F)c3F)c3cn(N4CCOCC4)c(=O)cc23)CC1` [Example 109, (R)-4-((1-(3-(difluoromethyl)-2-fluorophenyl)ethyl)amino)-1-(4-ethylpiperazin-1-yl)-6-morpholinopyrido[3 ,4-d]pyridazin-7(6H)-one], for which the IC50 in data set [1] worked out at 16.6 nM. The half-life at 1 µM in data set [2] (NADPH, 37°C) is more than 300 min. Besides, the CLint scaled at 1 µM in data set [2] (setting [3]) is less than 7.23 mL/min/kg.

On to `C[C@@H](Nc1nnc(N2CCN(C)CC2)c2cc(=O)n(N3CCOCC3)cc12)c1cccc(C(F)F)c1F` [Example 110, (R)-4-((1-(3-(difluoromethyl)-2-fluorophenyl)ethyl)amino)-1-(4-methylpiperazin-1-yl)-6-morpholinopyrido[3 ,4-d]pyridazin-7(6H)-one], for which the IC50 in data set [1] turned out to be 9.6 nM. Moreover, the half-life at 1 µM in data set [2] (NADPH, 37°C) was more than 300 min. Moreover, the CLint scaled at 1 µM in data set [2] (setting [3]) was less than 7.23 mL/min/kg.

With `CC(C)N1CCN(c2nnc(N[C@H](C)c3cccc(C(F)F)c3F)c3cn(N4CCOCC4)c(=O)cc23)CC1` [Example 111, (R)-4-((1-(3-(difluoromethyl)-2-fluorophenyl)ethyl)amino)-1-(4-isopropylpiperazin-1-yl)-6-morpholinopyrido[3 ,4-d]pyridazin-7(6H)-one], the IC50 in data set [1] was 14.4 nM. This compound also displayed a half-life at 1 µM in data set [2] (NADPH, 37°C) of more than 300 min. Further, the CLint scaled at 1 µM in data set [2] (setting [3]) is less than 7.23 mL/min/kg.

On to `CCN1CCN(c2nnc(N[C@H](C)c3cccc(C(F)F)c3F)c3cn(C4CCC4)c(=O)cc23)CC1` [Example 112, (R)-6-cyclobutyl-4-((1-(3-(difluoromethyl)-2-fluorophenyl)ethyl)amino)-1-(4-ethylpiperazin-1-yl)pyrido[3,4-d]pyridazin-7(6H)-one], for which, in data set [1], the IC50 is 20.2 nM. The compound also had a half-life at 1 µM in data set [2] (NADPH, 37°C) of 199 min. For the same compound, the CLint scaled at 1 µM in data set [2] (setting [3]) is 10.2 mL/min/kg.

Turning to `C[C@@H](Nc1nnc(N2CCN(C3CCCC3)CC2)c2cc(=O)n(N3CCOCC3)cc12)c1cccc(C(F)F)c1F` [Example 120, (R)-4-((1-(3-(difluoromethyl)-2-fluorophenyl)ethyl)amino)-1-(4-cyclopentylpiperazin-1-yl)-6-morpholinopyrido[3 ,4-d]pyridazin-7(6H)-one], the IC50 in data set [1] turned out to be 24.9 nM. The half-life at 1 µM in data set [2] (NADPH, 37°C) is more than 300 min. The CLint scaled at 1 µM in data set [2] (setting [3]) is less than 7.23 mL/min/kg.

Consider `CCN1CCN(c2nnc(N[C@H](C)c3cccc(C(F)F)c3F)c3cn(C4(C)CC4)c(=O)cc23)CC1` [Example 216, (R)-4-((1-(3-(difluoromethyl)-2-fluorophenyl)ethyl)amino)-1-(4-ethylpiperazin-1-yl)-6-(1-methylcyclopropyl) pyrido[3,4-d]pyridazin-7(6H)-one], for which the IC50 in data set [1] turned out to be 36.4 nM. The same compound registered a half-life at 1 µM in data set [2] (NADPH, 37°C) of 291 min. Moreover, the CLint scaled at 1 µM in data set [2] (setting [3]) is 7.43 mL/min/kg.

Turning to `CC(C)N1CCN(c2nnc(N[C@H](C)c3cccc(C(F)F)c3F)c3cn(C4(C)CC4)c(=O)cc23)CC1` [Example 217, (R)-4-((1-(3-(difluoromethyl)-2-fluorophenyl)ethyl)amino)-1-(4-isopropylpiperazin-1-yl)-6-(1-methylcyclopropyl) pyrido[3,4-d]pyridazin-7(6H)-one], the IC50 in data set [1] is 47.1 nM. In data set [2] (NADPH, 37°C), this compound gave a half-life at 1 µM of 260 min. For the same compound, in data set [2] (setting [3]), the CLint scaled at 1 µM is 8.18 mL/min/kg.

For `C[C@@H](Nc1nnc(N2CCN(C(C)(C)C)CC2)c2cc(=O)n(C3(C)CC3)cc12)c1cccc(C(F)F)c1F.O=CO` [Example 222, (R)-1-(4-(tert-butyl)piperazin-1-yl)-4-((1-(3-(difluoromethyl)-2-fluorophenyl)ethyl)amino)-6-(1-methylcyclopropyl) pyrido[3,4-d]pyridazin-7(6H)-one formate], the IC50 in data set [1] turned out to be 33.4 nM. For the same compound, the half-life at 1 µM in data set [2] (NADPH, 37°C) worked out at 218 min. Also, the CLint scaled at 1 µM in data set [2] (setting [3]) was 9.47 mL/min/kg.

Values taken from patent publication EP4722213A1, “NITROGEN-CONTAINING FUNCTIONAL GROUP-SUBSTITUTED PYRIDAZINOPYRIDONE DERIVATIVE AND USE THEREOF” (Sichuan Huiyu Pharmaceutical Co., Ltd., priority 2023, dated 2024).
